Test results published in US20230398130A1, “METHODS AND COMPOSITIONS FOR DIFFERENTIATING STEM CELLS” (Massachusetts Institute of Technology, priority 2020, published 2023).
Entries after “also recorded” stand apart in the source; their conditions may differ.

How the values were obtained:
[1] = tested on: ENR-cultured 3D-embedded organoid; test: 384 well-based 3D-embedded organoid screening (ENR, 6 days, FDA approved drug library, 10 μM): Cch-induced lysozyme secretion; format: cell-based, murine
Description: Leveraging their experience in 2.5D culture organoid screening (Mead, et al., 2020 High-throughput organoid screening enables engineering of intestinal epithelial composition. bioRxiv 2020.04.27.063727; Example 2 and 5), Applicants optimized multiple parameters such as organoid number and density, Matrigel volume, and compound-induced secretion stimulation to detect secreted lysozyme from ENR-cultured 3D-embedded organoid. […] The scheme is shown in FIG. 31; briefly, (1) prepare small organoid fragments by mechanical disruption and culture in ENRCV media for 4 days to grow stem cell-rich organoid, (2) replace media to conventional organoid growth media (ENR) add compounds, and culture for 6 days in total, (3) measure Cch-induced lysozyme secretion and ATP abundance. Based on multiple condition examination results (see FIG. 32 as an example), Applicants concluded that 20 organoids/well and 7 μL Matrigel mixture/well is the reasonable culture condition for 384 well-based screening. Additionally, a Notch signaling inhibitor, DAPT, can be used as a positive control, and stimulating by carbachol helps broaden the window between negative and positive control samples (FIG. 32). Utilizing this newly established platform, Applicants performed 384 well-based high-throughput chemical compound screening, aiming for further identification of PC inducers. […] Applicants prepared duplicates for each sample to increase the reliability and chose a single dose point of drugs (10 μM) to execute the initial screening readily and efficiently while planning to analyze precise dose-responsiveness in the following validation step.
Applicants analyzed all the data by Python 3 as follows. Log 2 transformed lysozyme-derived fluorescent values were calculated; violin plots of negative and positive controls (FIG. 33) and histograms of samples were shown with respect to each assay plate (FIG. 34). […] To evaluate the compound effects, robust Z-scores were calculated based on the negative controls in each plate, and all results were concatenated. […]

organoid line = test: Validation and dose optimization of the FDA library hits: lysozyme secretion normalized to ATP abundance; format: cell-based; settings: for lysozyme secretion normalized to ATP: 80 nM, different organoid line; for lysozyme secretion compared with KPT-330: in vitro validation, 80-320 nM
Protocol: Applicants next validated the initial screening results by the lysozyme secretion assays at four doses from 80 nM to 10 μM. To evaluate the cell-line dependent effect, Applicants utilized a different organoid line, derived from a different animal. DAPT-treated samples were prepared as positive controls, the same as in the screen. Applicants measured ATP abundance simultaneously as a surrogate of cell number and used it for normalizing lysozyme values. […] To further optimize the dose of each drug, Applicants treated with the three compounds at narrower dose range (80-320 nM) and KPT-330, previously identified PC inducer, for comparison.

lysozyme (LYZ) = test: Western blotting of lysozyme in 3D-cultured intestinal organoids; format: cell-based, murine; settings: organoids cultured 6 days in ENR+CV, ENR+CD or ENR
Description: Western blotting. ISC-enriched organoids cultured in 3D Matrigel with ENRCV media were passaged to 24-well plate in 3D Matrigel with ENRCV. At day zero, media were replaced to ENR or ENRCD with or without indicated compounds, and media were replaced every other day. At day six, cells were harvested from Matrigel by mechanical disruption and suspended in basal media. Cell pellets were lysed with Pierce© IP lysis buffer (ThermoFisher, 87787) containing Halt™ Protease Inhibitor Cocktail, EDTA-Free (ThermoFisher, 87785) after 3-minute centrifuge at 300×g at 4° C. Cell extracts were resolved by NuPAGE© SDS-PAGE Gel system (ThermoFisher) and electroblotted onto polyvinylidene difluoride membranes using Criterion™ Blotter (Biorad). The membranes were blocked with 2% Blotting-Grade Blocker (Biorad, 1706404) in TBS-T (50 mM Tris-HCl, 150 mM NaCl, and 0.1% Tween 20, pH 8.0) and then probed with appropriate antibodies. Detection was performed using ECL Select™ Western Blotting Detection Reagent (Amersham, 45-000-999) and ImageQuant LAS4000 (GE Healthcare).
Western blotting. Organoid-containing gel was homogenized in basal medium and centrifuged at 300 rcf for 3 min. Organoid pellet was lysed with ice-cold Pierce IP Lysis Buffer (Thermo Fisher Scientific, #87787) containing Halt Protease Inhibitor Cocktail, EDTA-Free (Thermo Fisher Scientific, #87785) and incubated on ice for 20 min. The lysate was centrifuged at 17,000 rcf for 10 min, and the supernatant was combined with NuPAGE LDS Sample Buffer (Thermo Fisher Scientific, NP0007). Protein concentration was determined by Pierce 660 nm Protein Assay (Thermo Fisher Scientific, #22660) and normalized to the lowest concentration among each sample set. […] Chemiluminescent signals were detected by LAS4000 (GE Healthcare) using Amersham ECL Select Western Blotting Detection Reagent (GE Healthcare, #45-000-999), and total protein signals were obtained by Odyssey Imaging System (LI-COR Biosciences) using REVERT Total Protein Stain Kit (LI-COR Biosciences, #926-11010).

Paneth cells [2] = test: Flow cytometry of 3D-cultured intestinal organoids (ENR+CD, 6 days): Paneth cell fraction (lysozyme-positive, CD24-mid); format: cell-based, murine
Protocol: Flow cytometry analysis (3D culture). ISC-enriched organoids cultured in 3D Matrigel with ENRCV media were passaged to 24-well plate in 3D Matrigel with ENRCV. At day zero, media were replaced to ENRCD with or without indicated compounds, and media were replaced every other day. […] Flow cytometry was performed using an LSR Fortessa (BD; Koch Institute Flow Cytometry Core at MIT). The data were analyzed using FlowJo v10 software.
Single live cells were selected by several gating strategies and Paneth cells were identified as lysozyme-high, CD24-mid, side scatter-high (SSC-high) (FIG. 27E). […] To evaluate whether the culture media supplements C and D may alter the effects of the 6 hits, Applicants also performed lysozyme assay in the canonical ENR culture condition in 3-D (because Paneth cells exist in an immature state within ENR, Applicants were unable to robustly quantify Paneth cell number via flow cytometry).
(§1) Flow cytometry. ISC-enriched organoids in 3D Matrigel culture were passaged to a 48-well plate and induced differentiation for 6 days by ENR+CD media containing DMSO or each drug indicated in the figures. DMSO- or drug-containing media were changed every other day. […] After vigorous pipetting and incubation at 37° C. for 15 min, the cell solution was diluted twice with basal media and centrifuged at 300 rcf for 3 min. […] The cell solution was centrifuged again at 300 rcf for 3 min at 4° C. to pellet the cells. […] Cells were centrifuged again for 3 min at 300 rcf and blocked with staining buffer (FACS buffer containing 0.5% Tween20 (Sigma, P2287)) for 15 min at RT in the dark. […] Flow cytometry was performed using an LSR Fortessa (BD; Koch Institute Flow Cytometry Core at MIT). Flow cytometry data were analyzed using FlowJo X v10.6.1 software.
Live Paneth cells were identified as LYZ-high, CD24-mid, side scatter-high (SSC-high) (FIG. 50F).
as §1, with “organoids in 3-D Matrigel culture” for “organoids in 3D Matrigel culture”, “to a 24- or 48-well plate” for “to a 48-well plate”

Paneth cells [3] = test: Immunofluorescent imaging of organoids: LYZ+ cells per organoid area; format: cell-based, murine
Protocol: Immunofluorescent imaging. For immunofluorescence staining of organoids, intestinal organoids in Matrigel were fixed with 4% paraformaldehyde, then transferred to centrifuge tube. After washing with PBS, the isolated organoids were permeabilized with 1% Triton X followed by incubation with blocking buffer (1% BSA+3% Donkey Serum+0.2% Triton X in PBS) at RT. The organoids were then stained with primary antibodies and fluorescent dye-labeled secondary antibodies as well as with DAPI. Slides were covered with […]® Mounting Media (VECTOR). The following primary and secondary antibodies were used for the staining: rabbit anti-Lysozyme (1:1000, Thermo Fisher Scientific), rat anti-E-cadherin (1:1000, Thermo Fisher Scientific), Alexa Fluor 488 and 568 secondary antibodies (1:1000, Invitrogen). Images were acquired with a confocal laser scanning microscope (Nikon Eclipse 90i). For the analysis of Lysozyme+ cells per organoid area, the number of counted Lysozyme+ cells were normalized to measured organoid surface area. Image J was used for the data analysis.

intestinal organoids = test: Population RNA-sequencing of organoids; format: cell-based, murine; settings: ENR+CV, ENR+CD or ENR organoids
Protocol: Population RNA-sequencing. Population RNA-seq was performed using a derivative of the Smart-Seq2 protocol for single cells. In brief, organoid media was aspirated and RLT+BME (Qiagen) was added to each well, and plate shaken for 30 minutes to fully lyse. Lysate was aliquoted into 4 identical fractions and stored at −80° C. until reverse transcription. RNA lysate was thawed and cleaned with a 2.2×SPRI ratio using Agencourt RNAClean XP beads (Beckman Coulter, A63987). RNA-seq was performed on a bulk population of […] using Smart-Seq2 chemistry, starting with a 2.2×SPRI ratio cleanup. After oligo-dT priming, Maxima H Minus Reverse Transcriptase (ThermoFisher EP0753) was used to synthesize cDNA with an elongation step at 52° C. before PCR amplification (15 cycles for tissue, 18 cycles for sorted basal cells) using KAPA HiFi PCR Mastermix (Kapa Biosystems KK2602). Sequencing libraries were prepared using the Nextera XT DNA tagmentation kit (Illumina FC-131-1096) with 250 pg input for each sample. Libraries were pooled post-Nextera and cleaned using Agencourt AMPure SPRI beads with successive 0.7× and 0.8× ratio SPRIs and sequenced with an Illumina 75 Cycle NextSeq500/550v2 kit (Illumina FC-404-2005) with loading density at 2.2 pM, with paired end 35 cycle read structure. Samples were sequenced at an average read depth of 8.44 million reads per sample and a total of 96 samples.
Organoid samples were aligned to the Mm10 genome and transcriptome using STAR and RSEM. […] For module scoring with the in vivo Paneth and enteroendocrine cell-defining genes, Applicants used previously published gene sets and computed persample module scores through the Seurat package.

C=C1/C(=C\C=C2/CCC[C@]3(C)[C@@H]([C@H](C)/C=C/[C@@H](O)C4CC4)CC[C@@H]23)C[C@@H](O)C[C@@H]1O [Calcipotriene]
effect on Cch-induced lysozyme secretion (hit identification) [1]: identified as Paneth cell activators
lysozyme secretion normalized to ATP (organoid line): effects were validated
lysozyme secretion compared with KPT-330 (organoid line): outperformed KPT-330

Nc1ncn([C@H]2C[C@H](O)[C@@H](CO)O2)c(=O)n1 [Decitabine, 5-aza-2′-deoxycytidine]
effect on Cch-induced lysozyme secretion (hit identification) [1]: identified as Paneth cell activators
lysozyme secretion normalized to ATP (organoid line): effects were validated
lysozyme secretion compared with KPT-330 (organoid line): outperformed KPT-330

NC(=O)/C(=C/n1cnc(-c2cc(C(F)(F)F)cc(C(F)(F)F)c2)n1)c1cncnc1 [KPT-8602]
LYZ abundance per unit protein (Western blotting) (lysozyme (LYZ)): appreciably increase LYZ abundance
Paneth cell proportion in organoids (Paneth cells [2]; 160 nM KPT-8602, ENR+CD 6 days): statistically significant increases in Paneth cell representation; also recorded: increased the proportion of PC; also recorded: increasing the proportion of Paneth cells
proportion of Paneth cells (IF imaging) (Paneth cells [3]; 160 nM KPT-8602, ENR+CD 3 days): increasing the proportion of Paneth cells
secretory cell identity (Paneth, goblet, EEC) from bulk transcripts (intestinal organoids): increase secretory cells (Paneth, goblet, and EEC)

CCC(=C/[C@H](C)C/C=C/C(C)=C/[C@@H](C)C(=O)[C@@H](C)[C@H](O)[C@@H](C)C/C(C)=C/C(=O)O)/C=C/[C@@H]1OC(=O)C=C[C@@H]1C [Leptomycin B]
LYZ abundance per unit protein (Western blotting) (lysozyme (LYZ)): appreciably increase LYZ abundance
Paneth cell proportion in organoids (Paneth cells [2]; 2 ng/mL Leptomycin B, ENR+CD 6 days): statistically significant increases in Paneth cell representation
Paneth cell proportion in organoids (Paneth cells [2]; 2 ng/mL Leptomycin B, ENR+CD 6 days, listed as leptomycin B): increased the proportion of PC; also recorded: increasing the proportion of Paneth cells
proportion of Paneth cells (IF imaging) (Paneth cells [3]; 2 ng/mL Leptomycin B, ENR+CD 3 days): increasing the proportion of Paneth cells

Nc1nc2nc[nH]c2c(=S)[nH]1 [Thioguanine]
effect on Cch-induced lysozyme secretion (hit identification) [1]: identified as Paneth cell activators
lysozyme secretion normalized to ATP (organoid line): effects were validated
lysozyme secretion compared with KPT-330 (organoid line): outperformed KPT-330
